Data reported in paper PMC10321576, “Cyclic peptides target the aromatic cage of a PHD-finger reader domain to modulate epigenetic protein function” (Chemical Science, 2023).
Like-named read-outs stand apart in the source and are kept apart here. Peptide text beside a SMILES is read from it.

Columns and labels:
HisTrx-KDM7B PHD = target: T1, HisTrx-KDM7B PHD (Homo sapiens, UniProt Q9UPP1); test: ITC binding
T1 construct: KDM7B 1-66; made in house
T1 sequence (Q9UPP1 1-66 isoform Q9UPP1-2): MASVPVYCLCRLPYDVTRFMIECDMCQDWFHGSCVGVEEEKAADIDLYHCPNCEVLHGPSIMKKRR
Protocol: Figure S8. ITC titration curves for His-Trx-KDM7B PHD.
Top panels are raw heat of injection, bottom panels are normalised data fitted to 1:1 binding model.
His-Trx = His6+thioredoxin. For […]
results of fit and conditions see Figure S10. […]
Figure S10. ITC results: Tabulated values from 1:1 binding model and conditions ITC buffer = 50 mM HEPES, 100 mM NaCl, pH 7.4, 0.2 µm filtered), at 25 °C. Dual = PHD+JmjC. HisTrx = His 6+thioredoxin tag, GST = glutathione S -transferase tag, ZB = Z -basic tag. Syringe contained peptide solution in buffer. Cell contained protein solution in buffer.
(§1) (1 picture or pasted object on this page, not shown here)

SPIN1 TTD = SPIN1 TTD (Homo sapiens, UniProt Q9Y657); test: BLI binding; details: 1:1 binding model
Sequence of SPIN1 TTD (Q9Y657 53-262 limits assumed): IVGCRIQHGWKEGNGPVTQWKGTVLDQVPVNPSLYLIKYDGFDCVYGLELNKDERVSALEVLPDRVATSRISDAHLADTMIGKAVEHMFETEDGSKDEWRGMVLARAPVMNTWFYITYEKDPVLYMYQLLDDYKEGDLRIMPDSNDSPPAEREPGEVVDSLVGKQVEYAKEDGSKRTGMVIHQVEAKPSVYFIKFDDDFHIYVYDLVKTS
Description: (§2) against KDM7 and other protein domains. t1/2 = half life (0.693 / Koff)
as §1

DIDO PHD = target: T2, DIDO PHD (Homo sapiens, UniProt Q9BTC0); test: BLI binding; details: 1:1 binding model
T2 construct: DIDO PHD
T2 sequence (Q9BTC0 268-322 limits assumed): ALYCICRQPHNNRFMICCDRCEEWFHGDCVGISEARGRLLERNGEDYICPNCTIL
Description: as §2, §1

ING2 PHD = target: T3, ING2 PHD (Homo sapiens, UniProt Q9H160); test: BLI binding; details: 1:1 binding model
T3 construct: ING2 PHD
T3 sequence (Q9H160 212-261 limits assumed): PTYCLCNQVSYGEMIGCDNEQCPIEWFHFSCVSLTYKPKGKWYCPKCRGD
Description: as §2, §1

TAF3 PHD = target: T4, TAF3 PHD (Homo sapiens, UniProt Q5VWG9); test: BLI binding; details: 1:1 binding model
T4 construct: TAF3 PHD
T4 sequence (Q5VWG9 865-915 limits assumed): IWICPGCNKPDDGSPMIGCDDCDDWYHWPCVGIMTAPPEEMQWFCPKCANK
Description: as §2, §1

KDM7B dual domain = target: T5, KDM7B dual domain (Homo sapiens, UniProt Q9UPP1); test: AlphaScreen demethylation assay; assay type: biochemical
T5 construct: dual domain (PHD-JmjC) of KDM7B; His-tag (C); made in house
T5 sequence (Q9UPP1 37-483 limits assumed): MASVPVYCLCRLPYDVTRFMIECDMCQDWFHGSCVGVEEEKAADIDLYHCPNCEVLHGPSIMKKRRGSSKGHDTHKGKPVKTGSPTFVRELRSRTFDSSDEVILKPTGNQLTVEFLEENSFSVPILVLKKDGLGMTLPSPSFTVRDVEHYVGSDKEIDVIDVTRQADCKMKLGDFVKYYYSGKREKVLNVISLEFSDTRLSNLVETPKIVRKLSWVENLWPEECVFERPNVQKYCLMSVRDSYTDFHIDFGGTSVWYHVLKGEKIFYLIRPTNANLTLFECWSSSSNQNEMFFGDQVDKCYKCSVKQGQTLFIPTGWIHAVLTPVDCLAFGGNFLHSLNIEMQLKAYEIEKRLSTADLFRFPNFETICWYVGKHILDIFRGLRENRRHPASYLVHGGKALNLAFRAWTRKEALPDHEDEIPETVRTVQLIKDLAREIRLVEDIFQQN
Description: We tested the effect of OC9 on KDM7B demethylation of H3_1–21K4me3K9me2 and the less-efficient H3_1–21K9me2 substrate by MALDI-TOF MS based assay.[14,19] […] Inhibition by OC9 was further confirmed by an orthogonal AS activity assay[58] (Fig. S41 ^†). […] As KDM7B aromatic cage mutation results in the same phenotypic outcome as JmjC catalytic site inactivation (e.g. KDM7B demethylase-dependent melanoma metastasis[20]), our results emphasise the crucial role of PHD-fingers in regulating KDM7 demethylase activity and the need to explore PHD-finger viability as therapeutic targets.

KDM7B PHD [1] = target: T6, KDM7B PHD (Homo sapiens, UniProt Q9UPP1); test: ITC binding
T6 construct: KDM7B 1-66; made in house
T6 sequence (Q9UPP1 1-66 isoform Q9UPP1-2): T1 sequence (Q9UPP1 1-66 isoform Q9UPP1-2)
Protocol: Figure S10. ITC results: Tabulated values from 1:1 binding model and conditions
ITC buffer = 50 mM HEPES, 100 mM NaCl, pH 7.4, 0.2 µm filtered), at 25 °C. Dual = PHD+JmjC. HisTrx
= His 6+thioredoxin tag, GST = glutathione S -transferase tag, ZB = Z -basic tag. Syringe contained
peptide solution in buffer. Cell contained protein solution in buffer.
as §1

KDM7A PHD+JmjC = KDM7A PHD+JmjC (Homo sapiens, UniProt Q6ZMT4); test: AlphaScreen displacement of H3 1-21K4me3-Bt; assay type: binding; details: average of two independent experiments
Sequence of KDM7A PHD+JmjC (Q6ZMT4 38-386 limits assumed): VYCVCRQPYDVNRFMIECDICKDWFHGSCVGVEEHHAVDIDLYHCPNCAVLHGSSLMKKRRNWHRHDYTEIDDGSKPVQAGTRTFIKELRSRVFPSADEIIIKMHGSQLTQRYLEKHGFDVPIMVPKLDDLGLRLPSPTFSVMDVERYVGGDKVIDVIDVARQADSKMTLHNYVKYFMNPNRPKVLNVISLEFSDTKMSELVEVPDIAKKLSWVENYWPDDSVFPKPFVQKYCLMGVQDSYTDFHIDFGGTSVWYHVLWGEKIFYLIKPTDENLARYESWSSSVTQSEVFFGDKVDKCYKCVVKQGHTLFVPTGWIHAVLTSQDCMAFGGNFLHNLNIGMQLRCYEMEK
Description: (§3) The functional effect of OC9 on the PHD-finger was further assessed using an AlphaScreen (AS) based proximity assay. […]

KDM7A PHD [2] = target: T7, KDM7A PHD (Homo sapiens, UniProt Q6ZMT4); test: AlphaScreen displacement of H3 1-21K4me3-Bt; assay type: binding; details: average of two independent experiments
T7 construct: KDM7A 38-98; made in house
T7 sequence (Q6ZMT4 38-98): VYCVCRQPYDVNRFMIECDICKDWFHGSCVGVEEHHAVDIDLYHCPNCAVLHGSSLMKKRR
Description: as §3

KDM7B PHD [3] = target: T6, KDM7B PHD; test: AlphaScreen displacement of H3 1-21K4me3-Bt; assay type: binding; details: average of at least two independent experiments; read-out: AlphaScreen displacement IC50, KDM7B PHD
Description: as §3

KDM7B PHD+JmjC = target: T8, KDM7B PHD+JmjC (Homo sapiens, UniProt Q9UPP1); test: AlphaScreen displacement of H3 1-21K4me3-Bt; assay type: binding; details: average of two independent experiments
T8 construct: dual domain (PHD-JmjC) of KDM7B; made in house
T8 sequence (Q9UPP1 37-483 limits assumed): as the sequence (Q9UPP1 37-483 limits assumed) above
Description: as §3

KDM7C PHD [4] = target: T9, KDM7C PHD (Homo sapiens, UniProt O75151); test: AlphaScreen displacement of H3 1-21K4me3-Bt; assay type: binding; details: average of two independent experiments
T9 construct: KDM7C 1-67; made in house
T9 sequence (O75151 1-67): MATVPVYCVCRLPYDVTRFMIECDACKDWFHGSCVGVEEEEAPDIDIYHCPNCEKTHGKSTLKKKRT
Description: as §3

KDM7A PHD [5] = target: T7, KDM7A PHD; test: BLI binding; details: 1:1 binding model
Description: (§4) Figure S2. BLI for KDM7 proteins with cyclic peptides.
(§5) BLI traces for b inding to KDM7 protein domains immobilised by C-terminal His -tag on Ni -NTA
(§6) biosensors, against cyclic peptides. Response trace for each peptide concentration is represented by
(§7) a different colour, with the fitted curves overlaid in black.
(§8) concentration plotted, with 2-fold dilutions thereafter. Dual domain = PHD+JmjC. […]
as §2, §1

KDM7C Dual (PHD+JmjC) = KDM7C Dual (PHD+JmjC) (Homo sapiens, UniProt O75151); test: BLI binding; details: 1:1 binding model
Sequence of KDM7C Dual (PHD+JmjC) (O75151 1-353 limits assumed): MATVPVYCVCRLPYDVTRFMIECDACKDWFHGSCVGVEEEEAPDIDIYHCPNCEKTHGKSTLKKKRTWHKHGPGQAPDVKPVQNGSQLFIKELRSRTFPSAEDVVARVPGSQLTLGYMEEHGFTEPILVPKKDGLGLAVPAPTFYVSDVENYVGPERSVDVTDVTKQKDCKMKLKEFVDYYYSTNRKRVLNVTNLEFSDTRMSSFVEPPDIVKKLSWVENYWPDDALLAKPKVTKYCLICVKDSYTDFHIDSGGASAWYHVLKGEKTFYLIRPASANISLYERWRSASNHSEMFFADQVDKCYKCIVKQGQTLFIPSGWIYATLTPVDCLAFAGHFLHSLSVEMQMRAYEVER
Description: as §4, §5, §6, §7, §8, §2, §1

KDM7A Dual (PHD+JmjC) = KDM7A Dual (PHD+JmjC) (Homo sapiens, UniProt Q6ZMT4); test: BLI binding; details: 1:1 binding model
Sequence of KDM7A Dual (PHD+JmjC) (Q6ZMT4 38-386 limits assumed): as the sequence (Q6ZMT4 38-386 limits assumed) above
Description: as §4, §5, §6, §7, §8, §2, §1

KDM7C PHD [6] = target: T9, KDM7C PHD; test: BLI binding; details: 1:1 binding model
Description: as §4, §5, §6, §7, §8, §2, §1

KDM2/3/4/5/6 = test: KDM selectivity screening by MALDI-TOF-MS; assay type: biochemical; details: histone peptide substrates; incl. full-length KDM2A and KDM2B
Description: The panel included full-length recombinant KDM2A and KDM2B which have the closest JmjC-domains to KDM7s, but with unrelated PHD-fingers (Fig. S43 and S44 ^†).

[7] = His-tagged protein on Ni-NTA biosensors

Kd (HisTrx-KDM7B PHD; 50 mM HEPES, 100 mM NaCl, pH 7.4, 25 °C, 1:1 binding model, His6+thioredoxin tag, read-out: ITC KD, HisTrx-KDM7B PHD): 8.27 nM | ITC ΔH, HisTrx-KDM7B PHD (HisTrx-KDM7B PHD; 25 °C): -60.0 ± 1.3 kJ mol -1 | Kd (HisTrx-KDM7B PHD; read-out: ITC pKD, HisTrx-KDM7B PHD (converted)): 7.94 nM | ITC N, HisTrx-KDM7B PHD (HisTrx-KDM7B PHD; stoichiometry): 0.86 ± 0.01 | Kd (SPIN1 TTD): > 1000 nM | BLI KD, DIDO PHD (DIDO PHD): no measurable affinity | Kd (DIDO PHD): > 1000 nM | Kd (ING2 PHD): > 1000 nM | Kd (TAF3 PHD): > 1000 nM | inhibition of KDM7B demethylase in orthogonal AS activity assay (KDM7B dual domain): Inhibition | Kd (KDM7B PHD [1]; 50 mM HEPES, 100 mM NaCl, pH 7.4, 25 °C, 1:1 binding model): 11.7 nM | ITC ΔH, KDM7B PHD (KDM7B PHD [1]; 25 °C): -46.2 ± 1.2 kJ mol -1 | ITC N, KDM7B PHD (KDM7B PHD [1]; stoichiometry): 0.99 ± 0.01 | affinity of OC9 against the KDM7 PHD-fingers greater than the natural histone peptide ligand (KDM7B PHD [1]; vs H3_1–21K4me3): at least 10 fold | IC50 (KDM7A PHD+JmjC): 132 nM | IC50 (KDM7A PHD [2]): 62 nM | IC50 (KDM7B PHD [3]): 32 nM | IC50 (KDM7B PHD+JmjC): 95 nM | IC50 (KDM7C PHD [4]): 26 nM | koff (KDM7A PHD [5]): 0.00679 ± 2e-05 s⁻¹ | kon (KDM7A PHD [5]): 358000 ± 3000 M⁻¹ s⁻¹ | Kd (KDM7A PHD [5]; [7]): 19 nM | koff (KDM7C Dual (PHD+JmjC)): 0.000137 ± 1e-06 s⁻¹ | kon (KDM7C Dual (PHD+JmjC)): 409000 ± 2000 M⁻¹ s⁻¹ | Kd (KDM7C Dual (PHD+JmjC); read-out: BLI pKD, KDM7C Dual (converted)): 0.316 nM | koff (KDM7A Dual (PHD+JmjC)): 0.0123 ± 0.0001 s⁻¹ | kon (KDM7A Dual (PHD+JmjC)): 289000 ± 3000 M⁻¹ s⁻¹ | Kd (KDM7A Dual (PHD+JmjC); [7]): 42.5 nM | koff (KDM7C PHD [6]): 0.000483 ± 2e-06 s⁻¹ | kon (KDM7C PHD [6]): 463000 ± 2000 M⁻¹ s⁻¹ | Kd (KDM7C PHD [6]; [7]): 1.05 nM
SMILES: CC(C)C[C@@H]1NC(=O)[C@H](Cc2ccc(O)cc2)NC(=O)[C@H](Cc2ccc(O)cc2)NC(=O)CSC[C@@H](C(N)=O)NC(=O)[C@H]([C@@H](C)O)NC(=O)[C@H](CCCNC(=N)N)NC(=O)[C@H](Cc2ccccc2)NC(=O)[C@H](C(C)C)NC(=O)[C@H](CO)NC(=O)[C@@H]2CCCN2C(=O)[C@H](Cc2ccc(O)cc2)NC(=O)[C@@H]2CCCN2C(=O)[C@H](Cc2c[nH]cn2)NC(=O)[C@H]([C@@H](C)O)NC1=O [OC9] (HELM PEPTIDE1{[O=C(C[*:3])[*:2]].Y.Y.L.T.H.P.Y.P.S.V.F.R.T.C.[am]}$PEPTIDE1,PEPTIDE1,1:R3-15:R3$$$V2.0)
inhibition of other isolated KDM sub-families (KDM2/3/4/5/6) (KDM2/3/4/5/6): no significant inhibition
